The text below walks through data of patent publication US20240299553A1, “INDOCARBOCYANINE LIPID DERIVATIVES FOR IN VIVO CARGO DELIVERY” (priority 2021, published 2024).

Data set [1] has as its system 4T1 tumor cells and F4/80+ tumor-associated macrophages. Nature of the data set: Flow cytometry of 4T1 tumor single-cell suspension after i.v. labeled liposomes. The class given is in vivo, mice. As to conditions: 72 h after a single i.v. injection; liposomes labeled with 0.2% dye. The procedure: (§1) 4T1 cell line was purchased from the ATCC and verified using a sequencing core. GL261 cells were obtained from the National Cancer Institute (NCI), and CT2A cells were a gift from Dr. Tom Seyfried (Boston College). LY2 cells were from Dr. Sana Karam, University of Colorado Anschutz Medical campus. Cells were grown at 37° C. in RPMI 1640 medium containing 10% heat-inactivated fetal bovine serum, 10 mM HEPES, 100 U/ml penicillin, and […] streptomycin (all from Corning Inc. New York, NY, USA). BALB/c mice were bred in-house. Mice of 8-10 weeks of age (females) were implanted with 0.5×10^6 cells into the mammary fat pad (4T1) or subcutaneously in the jaw region (LY2) and used for experiments 1 week later when tumors reached ˜200-300 mm^3. For brain tumors, C57BL/6 mice (6-8 weeks old) were implanted with a total 1×10^5 GL261 or CT-2A cells per animal using an established protocol. […]
A single-cell suspension of tumor tissue was prepared for flow cytometry analysis, as previously described. […] After incubation on ice for 20 minutes and washing, cells were analyzed for staining using the Guava EasyCyte HT flow cytometer (Merck KGaA). Cells were resuspended at ˜0.5 million/ml, and 20,000 events were detected. Dead cells and fragments were excluded with FSC/SSC dot plot, and the percentage of Cy5+ cells was analyzed with FlowJo software Version 10.6 (FlowJo, LLC). […]
Background: A flow cytometer gives signals particle by particle.

The nature of data set [2]: Plasma fluorescence elimination profile after liposome injection. As to conditions: 24 h post-injection; DiI/Cy5-DSPE liposomes. The class given is in vivo, mice. The method, then: as §1
Tumors and livers were placed in a 24-well plate and scanned as described above. […] Mean fluorescence was determined from 8-bit TIFF images using Fiji software by drawing a region of interest around the tumors and using the “Measure” function to determine mean gray values. […] For plasma fluorescence profile, plasma collected at different time points was serially diluted, dotted on a nitrocellulose membrane, scanned as above, and the mean fluorescence of dots was plotted versus time with Prism.

Data set [3] is described as follows: Ex vivo fluorescence imaging of excised tumors and livers. The class given is in vivo, mice. The method, then:
Tumors and livers were placed in a 24-well plate and scanned as described above. To match the intensity of the channels, the same liposomes used for injection were diluted (1:10), dotted on a 0.45 μm nitrocellulose membrane, and scanned together with the samples. Mean fluorescence was determined from 8-bit TIFF images using Fiji software by drawing a region of interest around the tumors and using the “Measure” function to determine mean gray values. Such measurement is independent of the organ cross-section area. The mean gray values of non-injected tumors were subtracted from the measurements. For plasma fluorescence profile, plasma collected at different time points was serially diluted, dotted on a nitrocellulose membrane, scanned as above, and the mean fluorescence of dots was plotted versus time with Prism.

The nature of data set [4]: Incubation of liposomes in liver homogenates, fluorescence ratio and TLC. The data set is classed as in vitro ADME, BALB/c mice. The following applies: 24 h and 48 h incubation. The procedure:
Liposomes were incubated at 2 mM in 80% mouse serum, PBS or 1% Tween/PBS for different times at 37° C. Following incubation, the samples were dotted on a nitrocellulose membrane and scanned at Cy3 and Cy5 wavelengths. Alternatively, to measure the release in serum, the samples were diluted after incubation 10-fold in PBS and ultracentrifuged at 80,000 rpm for 30 min, 4° C. using TLA-100.3 rotor of Beckman Optima ultracentrifuge. The supernatant in serum, liposomes in whole serum, and liposomes in PBS were dotted and scanned at Cy3 and Cy5 wavelengths with a Bio-Rad camera imager using Cy3 and Cy5 filters. The mean fluorescence of the dots was determined and used to calculate the percentage of release in serum. To measure the effect of tissue on DiI/Cy5 fluorescence ratio, livers from BALB/c mice were homogenized for 5 min in PBS (1:2 weight: volume ratio) using BioSpec Mini BeadBeater-16 tissue homogenizer with 1-2 zirconium beads added per tube. […]
For extraction using a modified Bligh-Dyer method, 50-100 mg tissue was homogenized as described above, 10 parts of chloroform/methanol (2:1) were added to the homogenate (considering that tissue weight is 1 part), and the samples were mixed at 1400 rpm for 2 h at room temperature on Eppendorf Thermomixer. […] The percentage of the injected DiI and Cy5 in the extract was calculated from the standard curve and divided by tissue weight. […]

Data set [5] is described as follows: TLC of liver extracts of mice injected with liposomes. The class given is in vivo. As to conditions: 24 h and 48 h post-injection of DiI/Cy5-DSPE liposomes. The method, then:
For extraction using a modified Bligh-Dyer method, 50-100 mg tissue was homogenized as described above, 10 parts of chloroform/methanol (2:1) were added to the homogenate (considering that tissue weight is 1 part), and the samples were mixed at 1400 rpm for 2 h at room temperature on Eppendorf Thermomixer. The tubes were centrifuged at 500 g for 10 min. The organic phase (bottom, approximately 80% of the added amount) was carefully collected, dotted on a PVDF membrane and scanned for DiI and Cy5 fluorescence as described above. Different dilutions of liposomes (standard curve) were scanned together with the samples. The percentage of the injected DiI and Cy5 in the extract was calculated from the standard curve and divided by tissue weight. The fluorescence of control non-injected organs was subtracted from that of injected organs. For TLC analysis, the mobile phase consisted of chloroform: methanol (9:1) with 1% trifluoroacetic acid and the samples were run on TLC Silica Gel 60 F254 plates (EMD Millipore).

For the compound `CCCCCCCCCCCCCCCCCC(=O)OC[C@H](COP(=O)(O)OCCNC(=O)CCCCCN1C(=CC=CC=CC2=[N+](C)c3ccccc3C2(C)C)C(C)(C)c2ccccc21)OC(=O)CCCCCCCCCCCCCCCCC` [Cy5-DSPE], in data set [1], the “accumulation in cells in the tumor” value was “minimal accumulation”. The “dye cleared from the circulation” value in data set [2] is reported as “approximately 80%”. Further, in data set [3] (livers, later time points versus 1 h), the “fluorescence in liver images over time” value is “decrease”. The “fluorescence in tumor images over time” value in data set [3] (tumors, 1 h, 24 h, 48 h post-injection) is “plateaued at 24 h and dropped at 48 h”. In addition, in data set [4], the “TLC of extracts of liver homogenates” value is reported as “appearance of degradation products”. For the same compound, the “TLC of liver extracts of injected mice” value in data set [5] was “degradation and disappearance”.
